The supplement of paper PMC4862054

How the values were obtained:
Conditions in all cases: incubation time: 72 h
BT-474 [1] = test: normalised response (% of control), CellTiter-Glo; higher = more viable cells (100 = DMSO, 0 = benzethonium chloride kill control)
Method in brief: (§1)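 Plates were normalised with 0.1 % DMSO as 100 and a positive kill control as 0. Breast cancer cell lines in 20 µl suspension had been seeded into 384-well plates with compound at 5 concentrations in 10-fold steps over a compound-specific 10,000-fold range, incubated 72 h, and read for CellTox Green fluorescence (485/520 nm) followed by CellTiter-Glo luminescence. Each value is the normalised signal at a single concentration.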

MDA-MB-468 [2] = test: as above
Method in brief: as §1

CAL-120 [3] = test: as above
Method in brief: as §1

MDA-MB-436 [4] = test: as above
Method in brief: as §1

CAL-51 [5] = test: as above
Method in brief: as §1

Hs578T [6] = test: as above
Method in brief: as §1

BT-549 [7] = test: as above
Method in brief: as §1

HDQ-P1 [8] = test: as above
Method in brief: as §1

MDA-MB-453 [9] = test: as above
Method in brief: as §1

HCC1599 [10] = test: as above
Method in brief: as §1

DU-4475 [11] = test: as above
Method in brief: as §1

CAL-85-1 [12] = test: as above
Method in brief: as §1

HCC1937 [13] = test: as above
Method in brief: as §1

CAL-148 [14] = test: as above
Method in brief: as §1

HCC1143 [15] = test: as above
Method in brief: as §1

SK-BR-3 = test: as above
Method in brief: as §1

MFM-223 [16] = test: as above
Method in brief: as §1

MCF-10A [17] = test: as above
Method in brief: as §1

MDA-MB-231 [18] = test: as above
Method in brief: as §1

BT-474 [19] = test: normalised response (% of control), CellTox Green; higher = less cell death (100 = DMSO, 0 = benzethonium chloride kill control)
Method in brief: as §1

MDA-MB-468 [20] = test: as above
Method in brief: as §1

CAL-120 [21] = test: as above
Method in brief: as §1

MDA-MB-436 [22] = test: as above
Method in brief: as §1

CAL-51 [23] = test: as above
Method in brief: as §1

Hs578T [24] = test: as above
Method in brief: as §1

BT-549 [25] = test: as above
Method in brief: as §1

HDQ-P1 [26] = test: as above
Method in brief: as §1

MDA-MB-453 [27] = test: as above
Method in brief: as §1

HCC1599 [28] = test: as above
Method in brief: as §1

DU-4475 [29] = test: as above
Method in brief: as §1

CAL-85-1 [30] = test: as above
Method in brief: as §1

HCC1937 [31] = test: as above
Method in brief: as §1

CAL-148 [32] = test: as above
Method in brief: as §1

HCC1143 [33] = test: as above
Method in brief: as §1

MFM-223 [34] = test: as above
Method in brief: as §1

MCF-10A [35] = test: as above
Method in brief: as §1

MDA-MB-231 [36] = test: as above
Method in brief: as §1

| Structure (SMILES) | normalised response (BT-474 [1]) [%] | normalised response (MDA-MB-468 [2]) [%] | normalised response (CAL-120 [3]) [%] | normalised response (MDA-MB-436 [4]) [%] | normalised response (CAL-51 [5]) [%] | normalised response (Hs578T [6]) [%] | normalised response (BT-549 [7]) [%] | normalised response (HDQ-P1 [8]) [%] | normalised response (MDA-MB-453 [9]) [%] | normalised response (HCC1599 [10]) [%] | normalised response (DU-4475 [11]) [%] | normalised response (CAL-85-1 [12]) [%] | normalised response (HCC1937 [13]) [%] | normalised response (CAL-148 [14]) [%] | normalised response (HCC1143 [15]) [%] | normalised response (SK-BR-3) [%] | normalised response (MFM-223 [16]) [%] | normalised response (MCF-10A [17]) [%] | normalised response (MDA-MB-231 [18]) [%] | normalised response (BT-474 [19]) [%] | normalised response (MDA-MB-468 [20]) [%] | normalised response (CAL-120 [21]) [%] | normalised response (MDA-MB-436 [22]) [%] | normalised response (CAL-51 [23]) [%] | normalised response (Hs578T [24]) [%] | normalised response (BT-549 [25]) [%] | normalised response (HDQ-P1 [26]) [%] | normalised response (MDA-MB-453 [27]) [%] | normalised response (HCC1599 [28]) [%] | normalised response (DU-4475 [29]) [%] | normalised response (CAL-85-1 [30]) [%] | normalised response (HCC1937 [31]) [%] | normalised response (CAL-148 [32]) [%] | normalised response (HCC1143 [33]) [%] | normalised response (MFM-223 [34]) [%] | normalised response (MCF-10A [35]) [%] | normalised response (MDA-MB-231 [36]) [%] |
| --- | --- | --- | --- | --- | --- | --- | --- | --- | --- | --- | --- | --- | --- | --- | --- | --- | --- | --- | --- | --- | --- | --- | --- | --- | --- | --- | --- | --- | --- | --- | --- | --- | --- | --- | --- | --- | --- |
| N#CCNC(=O)c1ccc(-c2ccnc(Nc3ccc(N4CCOCC4)cc3)n2)cc1 [Momelotinib] (100 nM) | 92.1 | 90 | 97.2 | 99.1 | 70.4 | 102 | 102 | 105 | 110 | 112 | 95.9 | 101 | 97.8 | 94.1 | 117 | 95.9 | 94.8 | 85.6 | 94.8 | 100 | 168 | 98.2 | 104 | 83 | 93.5 | 104 | 102 | 101 | 89.7 | 97.5 | 102 | 94.6 | 97.8 | 78.1 | 81.4 | 66.3 | 53.8 |
| CN[C@@H]1C[C@H]2O[C@@](C)([C@@H]1OC)n1c3ccccc3c3c4c(c5c6ccccc6n2c5c31)C(=O)N[C@H]4O [UCN-01] (100 nM) | 33.1 | 48.2 | 37 | 52 | 39 | 19.5 | 52.1 | 68.3 | 62.4 | 14.1 | 77.8 | 44.2 | 54.4 | 109 | 63.1 | 39.4 | 70.9 | 24 | 25 | 80.8 | 76.9 | 88.8 | 77.1 | 56.1 | 55 | 62.6 | 50.5 | 90.4 | 85.5 | 91.2 | 54.8 | 92.9 | 86 | 84.4 | 80.2 | 75.5 | 40.7 |
| O=C1CCC(N2C(=O)c3ccccc3C2=O)C(=O)N1 (stereo not drawn) [Thalidomide] (100 nM) | 103 | 93.6 | 95.2 | 101 | 100 | 94.5 | 98.3 | 105 | 101 | 99.6 | 102 | 95.6 | 98.1 | 97.4 | 95.9 | 97.7 | 95.7 | 98.9 | 95.6 | 102 | 127 | 98.8 | 97.9 | 103 | 94.8 | 106 | 95.2 | 104 | 96.6 | 101 | 107 | 87.4 | 79.1 | 103 | 99.8 | 109 | 106 |
| CN(C)/N=N/c1[nH]cnc1C(N)=O [Dacarbazine] (100 nM) | 96.8 | 100 | 101 | 102 | 101 | 103 | 115 | 98.5 | 103 | 92 | 105 | 106 | 102 | 105 | 112 | 107 | 105 | 100 | 107 | 101 | 85.4 | 101 | 100 | 110 | 79.5 | 96.7 | 105 | 99.6 | 101 | 102 | 105 | 106 | 106 | 82.8 | 105 | 107 | 101 |
